From patent US10406207B2, “Peptide conjugates of GLP-1 receptor agonists and gastrin and their use” (priority 2010, dated 2019)
Like-named read-outs stand apart in the source and are kept apart here. Ends that are not written are not given here.

Assays:
Format in all cases: cell-based
mouse CCK-B R = molecular target: T1, mouse CCK-B R (Mus musculus, UniProt P56481); experiment: Mouse CCK-B receptor efficacy assay (AlphaScreen SureFire p-ERK)
T1 construct: expressed in transfected cells
T1 sequence (P56481 1-453): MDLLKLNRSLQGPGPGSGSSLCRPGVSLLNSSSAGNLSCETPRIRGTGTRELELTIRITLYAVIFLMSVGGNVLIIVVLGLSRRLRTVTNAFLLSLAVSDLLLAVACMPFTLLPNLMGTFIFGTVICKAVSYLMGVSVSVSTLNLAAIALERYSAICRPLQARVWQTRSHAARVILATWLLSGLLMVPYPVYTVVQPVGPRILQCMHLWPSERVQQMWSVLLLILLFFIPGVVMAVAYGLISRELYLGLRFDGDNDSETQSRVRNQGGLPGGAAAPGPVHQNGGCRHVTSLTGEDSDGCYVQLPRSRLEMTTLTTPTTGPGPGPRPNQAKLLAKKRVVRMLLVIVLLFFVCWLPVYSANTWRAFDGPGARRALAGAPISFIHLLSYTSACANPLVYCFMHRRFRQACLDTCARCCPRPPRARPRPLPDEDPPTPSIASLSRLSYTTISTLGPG
Description: CCK-B Receptor (CCK-B R) Efficacy Assay:
To test binding and activation of CCK-B R we produced stable cell lines expressing one of the human or mouse CCK receptors in a manner similar to that for production of the hGLP-1 R cell lines were generated (vide supra). In brief, we used HEK293 cells for transfection of the cDNA for human or mouse CCK-A R or CCK-B R [hCCK-A R (gene identity: L19315), hCCK-B R (NM_176875), mCCK-A R (NM_009827) and mCCK-B R (NM_007627)] all cloned into the transfection plasmid pIRESneo2dNGFR. The cells were grown according to standard protocol in growth medium and transfected with the plasmids using Lipofectamin (Invitrogen). The cells stably expressing CCK receptors were selected using G418 in the growth medium (only cells that have taken up and incorporated the cDNA expression plasmid survive) and propagated. Stocks of cells were frozen for later use.
In vitro effects of peptide conjugates of the invention were estimated by measuring p-ERK (using the AlphaScreen™ SureFire p-ERK assay) in HEK293 cells stably expressing the human and mouse CCK-B R (high-affinity Gastrin receptor), respectively. The Gastrin receptor efficacy assays (AlphaScreen™ SureFire p-ERK assay) were performed as follows:
The CCK-B R expressing cells in question were seeded at 20,000 cells/well in 100 μl growth medium [DMEM, 10% FCS, Penicillin (100 IU/ml), Streptomycin (100 μg/ml)] in a 96-well plate coated with poly-D-lysine. The cells were incubated in an incubator (37° C., 5% […]) for two days.
The growth medium was changed to 80 μl of serum-free medium [DMEM, Penicillin (100 IU/ml), Streptomycin (100 μg/ml)] per well, and incubation of the cells was continued for 19 hours in the incubator (37° C., 5% CO2).
• 1. After 19 hours, 20 μl of serum-free medium containing one of 5 different concentrations of peptide conjugate was added (performed in triplicate for each concentration), and the cells were incubated for 5 min. at room temperature. • 2. The stimulation medium was discarded by quickly turning the plate upside down, and 60 μl 1× lysis buffer (from the SureFire assay kit) was added per well. • 3. The plate was shaken on a plate-shaker for 5 min and then placed on ice. • 4. SureFire P-ERK assay: 4 μl of each supernatant was transferred to a 384 well proxiplate (Perkin Elmer). • 5. 4 μl of each of the two control lysates (unstimulated and stimulated) were added to the proxiplate in duplicate. • 6. […] 7 μl of the latter reaction buffer+activation buffer+beads per well were added in the proxiplate, the mix being resuspended carefully before addition to the wells. • 7. The plate was incubated for 2 hours in a dark box in a 22° C. incubator. • 8. The plate was analyzed on an Envision™ light-emission plate reader (Perkin-Elmer) using the appropriate reading program (Perkin-Elmer).

human CCK-B R = molecular target: T2, human CCK-B R (Homo sapiens, UniProt P32239); experiment: Human CCK-B receptor efficacy assay (AlphaScreen SureFire p-ERK); details: read-out: hCCK-B R EC50
T2 construct: expressed in transfected cells
T2 sequence (P32239 1-447): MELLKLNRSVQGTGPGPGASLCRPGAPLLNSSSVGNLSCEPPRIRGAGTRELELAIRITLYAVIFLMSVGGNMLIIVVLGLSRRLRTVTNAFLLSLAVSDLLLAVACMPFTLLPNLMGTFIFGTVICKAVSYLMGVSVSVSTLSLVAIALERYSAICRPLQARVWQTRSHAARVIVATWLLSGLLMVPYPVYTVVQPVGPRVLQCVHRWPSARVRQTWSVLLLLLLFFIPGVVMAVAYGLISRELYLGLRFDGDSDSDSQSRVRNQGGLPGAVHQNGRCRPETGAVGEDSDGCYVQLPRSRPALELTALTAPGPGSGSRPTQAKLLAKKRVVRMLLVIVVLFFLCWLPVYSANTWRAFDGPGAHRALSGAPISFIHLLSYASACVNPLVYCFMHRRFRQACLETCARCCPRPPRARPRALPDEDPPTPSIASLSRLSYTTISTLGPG
Experimental: The CCK-B R expressing cells in question were seeded at 20,000 cells/well in 100 μl growth medium [DMEM, 10% FCS, Penicillin (100 IU/ml), Streptomycin (100 μg/ml)] in a 96-well plate coated with poly-D-lysine. The cells were incubated in an incubator (37° C., 5% 002) for two days.

human GLP-1 R = molecular target: T3, human GLP-1 R (Homo sapiens, UniProt P43220); experiment: Human GLP-1 receptor efficacy assay (cAMP induction, FlashPlate); details: read-out: hGLP-1 R EC50
T3 construct: expressed in transfected cells
Experimental: On the day of analysis, growth medium was removed and the cells were washed once with 200 μl Tyrode buffer [Tyrode's Salts (9.6 g/l), 10 mM HEPES, pH 7.4]. […] The reaction was stopped by addition of 25 μl 0.5 M HCl and incubated on ice for 60 min.

[1] = Table 1, HEK293 cells expressing mouse CCK-B R, p-ERK, read-out: mCCK-B R EC50
[2] = Table 1, HEK293 cells expressing human CCK-B R, p-ERK

T3 sequence (P43220 24-463): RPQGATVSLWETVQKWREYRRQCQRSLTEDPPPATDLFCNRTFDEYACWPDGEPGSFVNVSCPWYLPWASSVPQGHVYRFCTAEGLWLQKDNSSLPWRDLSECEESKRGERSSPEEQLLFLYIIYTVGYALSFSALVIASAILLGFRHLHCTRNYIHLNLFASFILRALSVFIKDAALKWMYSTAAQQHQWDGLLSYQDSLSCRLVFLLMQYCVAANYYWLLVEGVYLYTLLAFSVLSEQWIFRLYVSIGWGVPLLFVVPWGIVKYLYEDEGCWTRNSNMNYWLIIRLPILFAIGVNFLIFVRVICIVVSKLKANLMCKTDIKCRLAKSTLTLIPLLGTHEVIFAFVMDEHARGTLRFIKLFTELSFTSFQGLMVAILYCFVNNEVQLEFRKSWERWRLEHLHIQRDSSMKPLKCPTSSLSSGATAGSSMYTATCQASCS

EC50 (mouse CCK-B R; [1]) [nM]	EC50 (human CCK-B R; [2]) [nM]	EC50 (human CCK-B R; Table 2) [nM]	EC50 (human GLP-1 R; Table 2) [nM]	Compound	also measured
51.1	8.76			CC[C@H](C)[C@H](NC(=O)[C@H](Cc1ccccc1)NC(=O)[C@H](CCC(=O)O)NC(=O)[C@H](CCCCN)NC(=O)[C@H](C)NC(=O)[C@H](C)NC(=O)[C@H](CCC(N)=O)NC(=O)CNC(=O)[C@H](CCC(=O)O)NC(=O)[C@H](CC(C)C)NC(=O)[C@H](Cc1ccc(O)cc1)NC(=O)[C@H](CO)NC(=O)[C@H](CO)NC(=O)[C@@H](NC(=O)[C@H](CC(=O)O)NC(=O)[C@H](CO)NC(=O)[C@@H](NC(=O)[C@H](Cc1ccccc1)NC(=O)[C@@H](NC(=O)CNC(=O)[C@H](CCC(=O)O)NC(=O)[C@H](C)NC(=O)[C@@H](N)Cc1c[nH]cn1)[C@@H](C)O)[C@@H](C)O)C(C)C)C(=O)N[C@@H](C)C(=O)N[C@@H](Cc1c[nH]c2ccccc12)C(=O)N[C@@H](CC(C)C)C(=O)N[C@H](C(=O)N[C@@H](CCCCN)C(=O)NCC(=O)N[C@@H](CCCNC(=N)N)C(=O)NCCOCCOCC(=O)N[C@@H](CO)C(=O)N[C@@H](CCCCN)C(=O)N[C@@H](CCCCN)C(=O)N[C@@H](CCC(N)=O)C(=O)NCC(=O)N1CCC[C@H]1C(=O)N[C@@H](Cc1c[nH]c2ccccc12)C(=O)N[C@@H](CC(C)C)C(=O)N[C@@H](CCC(=O)O)C(=O)N[C@@H](CCC(=O)O)C(=O)N[C@@H](CCC(=O)O)C(=O)N[C@@H](CCC(=O)O)C(=O)N[C@@H](CCC(=O)O)C(=O)N[C@@H](C)C(=O)N[C@@H](Cc1ccc(O)cc1)C(=O)NCC(=O)N[C@@H](Cc1c[nH]c2ccccc12)C(=O)N[C@@H](CC(C)C)C(=O)N[C@@H](CC(=O)O)C(=O)N[C@@H](Cc1ccccc1)C(N)=O)C(C)C [Compound 41, GLP-1(7-36)-Peg3-SKK-[Gln1,Leu15]Gastrin17]	
58.3	8.2			CC[C@H](C)[C@H](NC(=O)[C@H](Cc1ccccc1)NC(=O)[C@H](CCC(=O)O)NC(=O)[C@H](CCCCN)NC(=O)[C@H](C)NC(=O)[C@H](C)NC(=O)[C@H](CCC(N)=O)NC(=O)CNC(=O)[C@H](CCC(=O)O)NC(=O)[C@H](CC(C)C)NC(=O)[C@H](Cc1ccc(O)cc1)NC(=O)[C@H](CO)NC(=O)[C@H](CO)NC(=O)[C@@H](NC(=O)[C@H](CC(=O)O)NC(=O)[C@H](CO)NC(=O)[C@@H](NC(=O)[C@H](Cc1ccccc1)NC(=O)[C@@H](NC(=O)CNC(=O)[C@H](CCC(=O)O)NC(=O)[C@H](C)NC(=O)[C@@H](N)Cc1c[nH]cn1)[C@@H](C)O)[C@@H](C)O)C(C)C)C(=O)N[C@@H](C)C(=O)N[C@@H](Cc1c[nH]c2ccccc12)C(=O)N[C@@H](CC(C)C)C(=O)N[C@H](C(=O)N[C@@H](CCCCN)C(=O)NCC(=O)N[C@@H](CCCNC(=N)N)C(=O)NCCOCCOCC(=O)NCCOCCOCC(=O)N[C@@H](CCC(N)=O)C(=O)NCC(=O)N1CCC[C@H]1C(=O)N[C@@H](Cc1c[nH]c2ccccc12)C(=O)N[C@@H](CC(C)C)C(=O)N[C@@H](CCC(=O)O)C(=O)N[C@@H](CCC(=O)O)C(=O)N[C@@H](CCC(=O)O)C(=O)N[C@@H](CCC(=O)O)C(=O)N[C@@H](CCC(=O)O)C(=O)N[C@@H](C)C(=O)N[C@@H](Cc1ccc(O)cc1)C(=O)NCC(=O)N[C@@H](Cc1c[nH]c2ccccc12)C(=O)N[C@@H](CC(C)C)C(=O)N[C@@H](CC(=O)O)C(=O)N[C@@H](Cc1ccccc1)C(N)=O)C(C)C [Compound 42, GLP-1(7-36)-Peg3-Peg3-[Gln1,Leu15]Gastrin17]	
				CC[C@H](C)[C@H](NC(=O)[C@H](Cc1ccccc1)NC(=O)[C@H](CCC(=O)O)NC(=O)[C@H](CCCCN)NC(=O)[C@H](C)NC(=O)[C@H](C)NC(=O)[C@H](CCC(N)=O)NC(=O)CNC(=O)[C@H](CCC(=O)O)NC(=O)[C@H](CC(C)C)NC(=O)[C@H](Cc1ccc(O)cc1)NC(=O)[C@H](CO)NC(=O)[C@H](CO)NC(=O)[C@@H](NC(=O)[C@H](CC(=O)O)NC(=O)[C@H](CO)NC(=O)[C@@H](NC(=O)[C@H](Cc1ccccc1)NC(=O)[C@@H](NC(=O)CNC(=O)[C@H](CCC(=O)O)NC(=O)C(C)(C)NC(=O)[C@@H](N)Cc1c[nH]cn1)[C@@H](C)O)[C@@H](C)O)C(C)C)C(=O)N[C@@H](C)C(=O)N[C@@H](Cc1c[nH]c2ccccc12)C(=O)N[C@@H](CC(C)C)C(=O)N[C@H](C(=O)N[C@@H](CCCNC(=N)N)C(=O)NCC(=O)N[C@@H](CCCNC(=N)N)C(=O)NCC(=O)NCCOCCOCC(=O)NCCOCCOCC(=O)N[C@@H](Cc1ccc(O)cc1)C(=O)NCC(=O)N[C@@H](Cc1c[nH]c2ccccc12)C(=O)N[C@@H](CC(C)C)C(=O)N[C@@H](CC(=O)O)C(=O)N[C@@H](Cc1ccccc1)C(N)=O)C(C)C [Compound 112, [Aib8,Arg34]GLP-1(7-37)-Peg3-Peg3-[Leu4]Gastrin6]	EC50 (human CCK-B R; Table 3): 42 nM; EC50 (human GLP-1 R; Table 3): 0.043 nM
		211	1.2	H-HGEGTFTSELSKYLEEEAVRLFIEFLKWLDF-NH2 [Compound 96, [Glu9,Leu14,Phe25,Tyr13]Exendin-4(1-27)-[Leu2]Gastrin4]	
		30	0.11	H-HGEGTFTSELSKYLEEEAVRLFIEFLKYGWLDF-NH2 [Compound 101, [Glu9,Leu14,Phe25,Tyr13]Exendin-4(1-27)-[Leu4]Gastrin6]	
				QGPWLEEEEEAYGWLDF-NH2 [h[Gln1,Leu15]Gastrin17, reference compound]	EC50 (mouse CCK-B R): 18.2 nM
